≈ marks a conversion by molar mass, not a printed value. Where two headings read alike, the source gives them in different places. Bridge positions count the residues as written; N and C are the ends. Square brackets hold non-standard residues; d marks the D form. Peptide text beside a SMILES is read from it. βAla = NCCC(=O)O
Legend:
[1] = tested on: Methicillin-resistant Staphylococcus aureus (SAP400); assay: Broth dilution MIC against MRSA isolate; type: cell-based
[2] = tested on: Acinetobacter baumannii (PDR); assay: Broth dilution MIC against pan drug-resistant A. baumannii isolate; type: cell-based; details: isolate AB (PDR)
[3] = tested on: Pseudomonas aeruginosa (CF mucoid and non-mucoid); assay: Broth dilution MIC against P. aeruginosa isolates from cystic fibrosis patients; type: cell-based
E. coli = type: cell-based; details: for MIC in Broth Dilution, E. coli, RBC −: absence of RBC; for MIC in Broth Dilution, E. coli, RBC − / MIC in Broth Dilution, E. coli, RBC +: Table 3; for MIC, E. coli, No RBC / MIC, E. coli, 10^9 cells/ml RBC: Table 2; for MIC in Broth Dilution, E. coli, RBC +: presence of 1×10^9 human RBC/ml; for MIC, E. coli, 10^9 cells/ml RBC: with 10^9 human RBC/ml
Method: (§1) Peptide variants of D-CONGA (SEQ ID NO: 1) were tested for activity against E. coli, K. pneumoniae, and S. aureus. Minimum Inhibitory Concentrations (MIC) were measured in 96-well plates by broth dilution. Peptides were serially diluted in buffer or in buffer containing 1×10^9 human RBC/ml. Following 1 hr. incubation, bacteria in growth media were added and the plates were incubated overnight at 37° C. Sterilized, wells were identified to determine MIC. Hemolysis was measured by incubating 1×10^8 human RBCs with serially diluted peptide for 30 minutes followed by centrifugation of the cells and measurements of the released hemoglobin in the supernatant by absorbance at 410 nm. The value for 100% hemolysis was established by treatment with the detergent Triton-X100. Toxicity was measured by incubating serially diluted peptide with WI38 human fibroblast cells in the presence of SYTOX Green, a DNA binding dye that reports on cell death by membrane permeabilization. The peptide concentration that gives 50% cytotoxicity by relative SYTOX Green fluorescence, is denoted EC50.
(§2) Antimicrobial peptides and conventional antibiotics were prepared at 5-times the final concentration needed in 0.025% acetic acid. The antibiotics were serially diluted by a factor of 2:3 horizontally across 96-well plates from Corning, 25 μL per well. One column was reserved for controls. For the assays performed in the presence of RBC, type O+ human RBCs at 0 or 2.5×10^9 cells/mL were added in 50 μL aliquots to all wells. Following a 30-minute incubation, 50 μL of TSB, inoculated with 5×10^5 CFU/mL, was added to all wells, and plates were incubated overnight at 37° C. Following overnight incubation at 37° C., the OD600 was measured (values of less than 0.1 were considered sterilized). To assess bacterial growth in the assays with RBC, the OD600 was measured after a second day inoculation with 10 μL of solution from the original plate added to 100 μL of sterile TSB followed by overnight incubation.
(§3) MIC values were reported in μM peptide against gram-negative E. coli (EC), P. aeruginosa (PA), and gram-positive S. aureus (SA). The two columns under each organism are for assays performed in the absence (−) and presence (+) of 1×10^9 human RBC/ml. “>30” means that sterilization was not observed at 30 μM, the highest concentration tested. The column marked “hemolysis” is the fractional hemolysis of 1×10^8 human RBC/ml at 100 μM peptide determined from measurements of serially diluted peptide, starting from 100 μM. The column marked “EC 50” contains the concentration of peptide that kills 50% of WI-38 human fibroblast cells assayed by entry of SYTOX™ Green DNA binding dye.

K. pneumoniae = type: cell-based; details: for MIC in Broth Dilution, K. Pneumoniae, RBC +: presence of 1×10^9 human RBC/ml; for MIC, K. pneumoniae, 10^9 cells/ml RBC: with 10^9 human RBC/ml
Method: as §1, §2, §3

S. aureus = type: cell-based; details: for MIC in Broth Dilution, S. Aureus, RBC −: absence of RBC; for MIC in Broth Dilution, S. Aureus, RBC − / MIC in Broth Dilution, S. Aureus, RBC +: Table 3; for MIC, S. aureus, No RBC / MIC, S. aureus, 10^9 cells/ml RBC: Table 2; for MIC in Broth Dilution, S. Aureus, RBC +: presence of 1×10^9 human RBC/ml; for MIC, S. aureus, 10^9 cells/ml RBC: with 10^9 human RBC/ml
Method: as §1, §2, §3

human RBCs = assay: Hemolysis of human RBCs; type: cell-based
Method: as §1
Peptide was serially diluted in PBS starting at a concentration of 100 μM. The final volume of peptide in each well was 50 μL. To each well, 50 μL of RBCs in PBS at 2×10^8 cells/mL was added. As a positive lysis control, 1% triton was used. The mixtures were incubated at 37° C. for 1 hour, after which they were centrifuged at 1000 g for 5 minutes. After centrifugation, 10 μL of supernatant was transferred to 90 μL of DI H2O in a fresh 96-well plate. The absorbance of released hemoglobin at 410 nm was recorded and the fractional hemolysis was calculated based on the 100% and 0% lysis controls.
as §3

[4] = tested on: WI-38 human fibroblast cells; assay: SYTOX Green cytotoxicity assay; type: cell-based
Method: Peptide variants of D-CONGA (SEQ ID NO: 1) were tested for activity against E. coli, K. pneumoniae, and S. aureus. Minimum Inhibitory Concentrations (MIC) were measured in 96-well plates by broth dilution. […] Following 1 hr. incubation, bacteria in growth media were added and the plates were incubated overnight at 37° C. Sterilized, wells were identified to determine MIC. […] The value for 100% hemolysis was established by treatment with the detergent Triton-X100. Toxicity was measured by incubating serially diluted peptide with WI38 human fibroblast cells in the presence of SYTOX Green, a DNA binding dye that reports on cell death by membrane permeabilization. The peptide concentration that gives 50% cytotoxicity by relative SYTOX Green fluorescence, is denoted EC50. WI-38 cells were grown to confluency in T-75 flasks in complete DMEM (with 15% FBS, plus antibiotics and non-essential amino acids). The day prior to cytotoxicity experiments, cells were trypsinized, removed from the flask, and pelleted. Cells were resuspended in complete DMEM and the cell count was obtained using a cell counter. The cells were then seeded at a density of 10,000 cells/well in a 96-well tissue-culture plate. […] To perform the cytotoxicity assay, media from wells of overnight cell culture plate was removed, washed once with PBS and treated with 50 μl of the peptide and SYTOX™ Green mixture. The plate was read for fluorescence, every 5 minutes, for an hour at the excitation wavelength of 385 nm and emission wavelength of 530 nm. MelP5, a potent MPP, that causes 100% SYTOX™ Green entry into the cells was used as a positive control to normalize the cytotoxicity of peptides tested. MIC values were reported in μM peptide against gram-negative E. coli (EC), P. aeruginosa (PA), and gram-positive S. aureus (SA). […] The column marked “EC 50” contains the concentration of peptide that kills 50% of WI-38 human fibroblast cells assayed by entry of SYTOX™ Green DNA binding dye.

[5] = tested on: Klebsiella pneumoniae clinical isolates; details: clinical isolates
[6] = fractional hemolysis of 1×10^8 human RBC/ml at 100 μM peptide, Table 3
[7] = fractional hemolysis of human RBCs at 100 μM peptide, Table 2
[8] = 50% cytotoxicity by SYTOX Green, Table 2, read-out: EC50, μM (WI-38 Cells)

Row | Compound | MIC in Broth Dilution, E. coli, RBC − (E. coli) | MIC, E. coli, No RBC (E. coli) | MIC in Broth Dilution, E. coli, RBC + (E. coli) | MIC, E. coli, 10^9 cells/ml RBC (E. coli) | MIC in Broth Dilution, K. Pneumoniae, RBC + (K. pneumoniae; Table 3) | MIC in Broth Dilution, S. Aureus, RBC − (S. aureus) | MIC, S. aureus, No RBC (S. aureus) | EC50 [4, 8] | MIC, K. pneumoniae, 10^9 cells/ml RBC (K. pneumoniae; Table 2) | MIC in Broth Dilution, S. Aureus, RBC + (S. aureus) | MIC, S. aureus, 10^9 cells/ml RBC (S. aureus) | Hemolysis at 100 μM (human RBCs) | further results
1 | CC1(C)S[C@@H]2[C@H](NC(=O)[C@H](N)c3ccccc3)C(=O)N2[C@H]1C(=O)O [AMP, Ampicillin] | – | – | – | – | – | – | – | – | – | – | – | – | MIC [1]: >150 µM; MIC [2]: >150 µM; MIC ([3]; isolate PA (mucoid)): >150 µM; MIC ([3]; isolate PA (non-mucoid)): >150 µM
2 | CC(C)C[C@@H]1NC(=O)[C@H](CCCNC(=N)N)NC(=O)[C@H](CCCNC(=N)N)NC(=O)[C@H](C)NC(=O)[C@H](Cc2c[nH]c3ccccc23)NC(=O)[C@H](CCCNC(=N)N)NC(=O)[C@H](CCCNC(=N)N)NC(=O)CC[C@@H](C(N)=O)NC(=O)[C@H](CCCNC(=N)N)NC(=O)[C@H](CCCNC(=N)N)NC(=O)[C@H](Cc2ccccc2)NC(=O)[C@H](C)NC(=O)[C@H](Cc2ccccc2)NC(=O)[C@H](C)NC1=O [CYCLIZED-L-CONGA-E] (RRWARRLAFAFRRE-NH2; lactam N-14) | 22.9 µM (≈ 42.9 µg/mL) | 24 µM (≈ 44.9 µg/mL) | >30 µM | 30 μM | >30 µM | >30 µM | 30 µM (≈ 56.2 µg/mL) | – | – | – | – | – | Hemolysis at 100 μM (human RBCs; [6]): 0.03; Hemolysis at 100 μM (human RBCs; [7]): 0.03
3 | CC(C)C[C@@H]1NC(=O)[C@H](CCCNC(=N)N)NC(=O)[C@H](CCCNC(=N)N)NC(=O)[C@H](C)NC(=O)[C@H](Cc2c[nH]c3ccccc23)NC(=O)[C@H](CCCNC(=N)N)NC(=O)[C@H](CCCNC(=N)N)NC(=O)[C@H](CCCNC(=N)N)NC(=O)[C@H](CCCNC(=N)N)NC(=O)[C@H](Cc2ccccc2)NC(=O)[C@H](C)NC(=O)[C@H](Cc2ccccc2)NC(=O)[C@H](C)NC1=O [CYCLIZED-L-CONGA-OH] (cyclo(RRWARRLAFAFRR)) | 5.9 µM (≈ 10.3 µg/mL) | 5.9 µM (≈ 10.3 µg/mL) | 13.3 µM | 13.3 μM | 6 µM | 20 µM (≈ 34.9 µg/mL) | 20 µM (≈ 34.9 µg/mL) | – | – | – | – | – | Hemolysis at 100 μM (human RBCs; [6]): 0.7; Hemolysis at 100 μM (human RBCs; [7]): 0.7
4 | CC(C)C[C@@H](NC(=O)[C@@H](CCCNC(=N)N)NC(=O)[C@@H](CCCNC(=N)N)NC(=O)[C@@H](C)NC(=O)[C@@H](Cc1c[nH]c2ccccc12)NC(=O)[C@@H](CCCNC(=N)N)NC(=O)[C@H](N)CCCNC(=N)N)C(=O)N[C@H](C)C(=O)N[C@H](Cc1ccccc1)C(=O)N[C@H](C)C(=O)N[C@H](Cc1ccccc1)C(=O)N[C@H](CCCNC(=N)N)C(=O)N[C@H](CCCNC(=N)N)C(N)=O [D-CONGA, rrwarrlafafrr (All D), reference compound] (H-[dR][dR][dW][dA][dR][dR][dL][dA][dF][dA][dF][dR][dR]-NH2) | – | 1.0 µM (≈ 1.76 µg/mL) | – | 0.8 μM | – | 5.7 µM (≈ 10 µg/mL) | 5.7 µM (≈ 10 µg/mL) | 110 µM | 3.8 μM | 6.3 µM | 6.3 μM | 0.06 | –
5 | CC(C)C[C@@H](NC(=O)[C@@H](CCC(N)=O)NC(=O)[C@@H](CCCNC(=N)N)NC(=O)[C@@H](CCCNC(=N)N)NC(=O)[C@@H](C)NC(=O)[C@@H](Cc1c[nH]c2ccccc12)NC(=O)[C@@H](CCCNC(=N)N)NC(=O)[C@H](N)CCCNC(=N)N)C(=O)N[C@H](C)C(=O)N[C@H](Cc1ccccc1)C(=O)N[C@H](C)C(=O)N[C@H](Cc1ccccc1)C(=O)N[C@H](CCCNC(=N)N)C(=O)N[C@H](CCCNC(=N)N)C(N)=O [D-CONGA-Q7, rrwarrqlafafrr (All D)] (H-[dR][dR][dW][dA][dR][dR][dQ][dL][dA][dF][dA][dF][dR][dR]-NH2) | 1 µM (≈ 1.89 µg/mL) | 1 µM (≈ 1.89 µg/mL) | 1.7 µM | 1.7 μM | – | 4.2 µM (≈ 7.93 µg/mL) | 4.2 µM (≈ 7.93 µg/mL) | 418 µM | 1.5 μM | 3.6 µM | 3.6 μM | 0.07 | EC50 against WI-38 cells relative to that of D-CONGA [4]: four times higher; Toxicity against WI-38 cells (in words) [4]: lower cytotoxicity; MIC [5]: 1.8 µM (≈ 3.4 µg/mL)
6 | CC(C)C[C@@H](NC(=O)CCNC(=O)[C@@H](CCCNC(=N)N)NC(=O)[C@@H](CCCNC(=N)N)NC(=O)[C@@H](C)NC(=O)[C@@H](Cc1c[nH]c2ccccc12)NC(=O)[C@@H](CCCNC(=N)N)NC(=O)[C@H](N)CCCNC(=N)N)C(=O)N[C@H](C)C(=O)N[C@H](Cc1ccccc1)C(=O)N[C@H](C)C(=O)N[C@H](Cc1ccccc1)C(=O)N[C@H](CCCNC(=N)N)C(=O)N[C@H](CCCNC(=N)N)C(N)=O [D-CONGA-βa7, rrwarr-βa-lafafrr (All D)] (H-[dR][dR][dW][dA][dR][dR][βAla][dL][dA][dF][dA][dF][dR][dR]-NH2) | – | – | – | – | – | – | – | – | – | – | – | 0.02 | Toxicity against WI-38 cells (in words) [4]: least toxic of the variants
7 | rrwa (nor r, nor r)lafafrr [D-CONGA-NorR] | 1.9 µM | 1.9 µM | 2.4 µM | 2.4 μM | 11.8 µM | 7.6 µM | 7.6 µM | 66 µM | 12 μM | 17.2 µM | 17.2 μM | – | EC50 ([4]; kills 50% of WI-38 cells, SYTOX Green entry, Table 3, read-out: EC50, μM (WI-38)): 66 µM; MIC in Broth Dilution, K. Pneumoniae, RBC − (K. pneumoniae; absence of RBC, Table 3): 13.3 µM; MIC, K. pneumoniae, No RBC (K. pneumoniae; no RBC, Table 2): 13 µM

From patent publication US20230310540A1, “PEPTIDE COMPOSITIONS AND METHODS OF USE THEREOF” (priority 2020, published 2023)
